Broadly, the IC50 is the midpoint of a concentration-inhibition curve.

The target in the assay is T1, human HSL (Homo sapiens, UniProt Q05469).
T1 construct: generate a full length human HSL ORF with a 3′-His6 tag; made in house; host or cells: High 5 insect cells (baculovirus, pFast-BAC)
T1 sequence (Q05469 1-1076): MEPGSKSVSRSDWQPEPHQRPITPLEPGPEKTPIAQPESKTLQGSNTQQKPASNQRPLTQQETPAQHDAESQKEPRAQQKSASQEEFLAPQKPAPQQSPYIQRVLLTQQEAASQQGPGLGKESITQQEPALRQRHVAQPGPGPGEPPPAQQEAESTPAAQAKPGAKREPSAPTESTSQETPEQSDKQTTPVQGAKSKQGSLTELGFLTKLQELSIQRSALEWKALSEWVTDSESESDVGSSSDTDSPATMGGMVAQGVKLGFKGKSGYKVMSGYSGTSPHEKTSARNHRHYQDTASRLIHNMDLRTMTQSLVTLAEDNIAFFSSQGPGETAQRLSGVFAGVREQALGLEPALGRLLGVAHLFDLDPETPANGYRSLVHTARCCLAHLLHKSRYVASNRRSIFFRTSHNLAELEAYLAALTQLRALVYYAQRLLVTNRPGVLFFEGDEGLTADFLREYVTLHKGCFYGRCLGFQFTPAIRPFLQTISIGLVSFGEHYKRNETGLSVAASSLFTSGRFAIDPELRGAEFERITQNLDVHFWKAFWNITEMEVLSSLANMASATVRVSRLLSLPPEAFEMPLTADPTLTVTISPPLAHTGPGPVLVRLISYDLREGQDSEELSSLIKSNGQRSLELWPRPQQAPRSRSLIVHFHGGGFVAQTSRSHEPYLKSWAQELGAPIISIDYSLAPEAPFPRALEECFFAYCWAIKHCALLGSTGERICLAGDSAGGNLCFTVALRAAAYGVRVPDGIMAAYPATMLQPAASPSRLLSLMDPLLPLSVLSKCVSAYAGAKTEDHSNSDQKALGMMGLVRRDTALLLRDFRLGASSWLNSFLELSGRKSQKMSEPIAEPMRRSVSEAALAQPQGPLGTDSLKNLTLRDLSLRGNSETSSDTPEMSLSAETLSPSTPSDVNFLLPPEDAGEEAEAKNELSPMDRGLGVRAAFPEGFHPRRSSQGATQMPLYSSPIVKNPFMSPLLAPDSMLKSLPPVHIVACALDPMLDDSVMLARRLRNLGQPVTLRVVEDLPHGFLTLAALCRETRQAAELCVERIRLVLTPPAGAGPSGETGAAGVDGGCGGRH
In words: Human Hormone-Sensitive Lipase (HSL) enzyme inhibition assay (colorimetric, DMPT substrate). It is filed as biochemical. The following applies: human full length HSL-His6, 2,3-dimercapto-1-propanol tributyrate substrate, 37° C. 20 minutes, absorbance at 405 nm; read-out: HSL hum IC50. Put shortly: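 Full-length human HSL with C-terminal His6, expressed in baculovirus-infected High 5 cells and Ni-NTA purified, was added (15 ug/ml stock) to 1.5 mM DMPT in 100 mM MOPS pH 7.2, 0.2 mg/ml fatty acid-free BSA containing compound. After 20 min at 37 °C, DTNB with SDS/Triton X-100 was added; A405 read after 15 min at RT.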
Regarding `CCCOC[C@]1(O)CC[C@]2(CCN(c3ccc(O[C@H](C)C(F)(F)F)cc3)C2=O)CC1` [Example 270, (5α,8α)-8-Hydroxy-8-propoxymethyl-2-[4-((R)-2,2,2-trifluoro-1-methyl-ethoxy)-phenyl]-2-aza-spiro[4.5]decan-1-one], the IC50 was determined as 10 nM.

For `CCCSC[C@]1(O)CC[C@]2(CCN(c3ccc(OCC(F)(F)F)cc3)C2=O)CC1` [Example 294, (5α,8α)-8-Hydroxy-8-propylsulfanylmethyl-2-[4-(2,2,2-trifluoro-ethoxy)-phenyl]-2-aza-spiro[4.5]decan-1-one], the IC50 came to 20 nM.

As to `CCC[C@]1(O)CC[C@]2(CCN(c3ccc(OC(F)(F)F)cc3)C2=O)CC1` [Example 55, (5α,8α)-8-Hydroxy-8-propyl-2-(4-trifluoromethoxy-phenyl)-2-aza-spiro[4.5]decan-1-one], the half-maximal inhibitory concentration (IC50) was 20 nM.

On to `COc1ccc(N2CC[C@]3(CC[C@H](Oc4ccccc4)CC3)C2=O)cc1` [Example 46, (5α,8α)-2-(4-Methoxy-phenyl)-8-phenoxy-2-aza-spiro[4.5]decan-1-one], for which the IC50 stood at 4240 nM.

On to `O=C1N(c2ccc(OCC(F)(F)F)cc2)CC[C@]12CC[C@@H](O)CC2` [Example 85, (5α,8β)-8-Hydroxy-2-[4-(2,2,2-trifluoro-ethoxy)-phenyl]-2-aza-spiro[4.5]decan-1-one], for which the IC50 amounted to 2290 nM.

Turning to `CC(C)(C)c1ccc(N2CC[C@]3(CC[C@@H](Cc4ccn[nH]4)CC3)C2=O)cc1` [Example 364, (5α,8β)-2-(4-tert-Butyl-phenyl)-8-(2H-pyrazol-3-ylmethyl)-2-aza-spiro[4.5]decan-1-one], the IC50 came to 10 nM.

Regarding `C[C@H](Oc1ccc(N2CC[C@]3(CC[C@@](O)(COCC(F)F)CC3)C2=O)cc1)C(F)(F)F` [Example 299, (5α,8α)-8-(2,2-Difluoro-ethoxymethyl)-8-hydroxy-2-[4-((S)-2,2,2-trifluoro-1-methyl-ethoxy)-phenyl]-2-aza-spiro[4.5]decan-1-one], the IC50 amounted to 10 nM.

As to `O=C1N(c2ccc(OCC(F)(F)F)cc2)CC[C@]12CC[C@@](O)(COCC1CCO1)CC2` (stereo partly drawn) [Example 259, (5α,8α)-8-Hydroxy-8-(oxetan-2-ylmethoxymethyl)-2-[4-(2,2,2-trifluoro-ethoxy)-phenyl]-2-aza-spiro[4.5]decan-1-one], the IC50 was 80 nM.

Take `O=C1N(c2ccc(OCC(F)(F)F)cc2)CC[C@]12CC[C@@](O)(COCCC1CC1)CC2` [Example 290, (5α,8α)-8-(2-Cyclopropyl-ethoxymethyl)-8-hydroxy-2-[4-(2,2,2-trifluoro-ethoxy)-phenyl]-2-aza-spiro[4.5]decan-1-one]: the IC50 is 20 nM.

As to `CC(C)OC[C@]1(O)CC[C@]2(CCN(c3ccc(O[C@H](C)C(F)(F)F)cc3)C2=O)CC1` [Example 310, (5α,8α)-8-Hydroxy-8-isopropoxymethyl-2-[4-((R)-2,2,2-trifluoro-1-methyl-ethoxy)-phenyl]-2-aza-spiro[4.5]decan-1-one], the IC50 was 10 nM.

For `CCC[C@]1(O)CC[C@@]2(CCN(c3ccc(OS(C)(=O)=O)cc3)C2=O)CC1` [Example 185, 4-((5α,8β))-8-hydroxy-1-oxo-8-propyl-2-aza-spiro[4.5]decan-2-yl)phenyl methanesulfonate], the 50% inhibitory concentration (IC50) was determined as 50 nM.

As for `CCC[C@]1(O)CC[C@@]2(CCN(c3ccc(OC(C)C(F)(F)F)cc3)C2=O)CC1` (stereo partly drawn) [Example 163, (5α,8β)-8-Hydroxy-8-propyl-2-[4-(2,2,2-trifluoro-1-methyl-ethoxy)-phenyl]-2-aza-spiro[4.5]decan-1-one], the IC50 amounted to 790 nM.

`CC[C@]1(O)CC[C@]2(CCN(c3ccc(CC(F)(F)F)cc3)C2=O)CC1` [Example 79, (5α,8α)-8-Ethyl-8-hydroxy-2-[4-(2,2,2-trifluoro-ethyl)-phenyl]-2-aza-spiro[4.5]decan-1-one]: the IC50 is 30 nM.

As to `C=CCC[C@]1(O)CC[C@]2(CCN(c3ccc(OC(F)(F)F)cc3)C2=O)CC1` [Example 64, (5α,8α)-8-But-3-enyl-8-hydroxy-2-(4-trifluoromethoxy-phenyl)-2-aza-spiro[4.5]decan-1-one], the IC50 amounted to 30 nM.

On to `C[C@]1(O)CC[C@]2(CCN(c3ccc(CC(F)(F)F)cc3)C2=O)CC1` [Example 77, (5α,8α)-8-Hydroxy-8-methyl-2-[4-(2,2,2-trifluoro-ethyl)-phenyl]-2-aza-spiro[4.5]decan-1-one], for which the IC50 turned out to be 50 nM.

With `C[C@@H](Oc1ccc(N2CC[C@]3(CC[C@@](O)(C(F)(F)F)CC3)C2=O)cc1)C(F)(F)F` [Example 177b, (5α,8α)-8-Hydroxy-8-trifluoromethyl-2-[4-((R)-2,2,2-trifluoro-1-methyl-ethoxy)-phenyl]-2-aza-spiro[4.5]decan-1-one], the IC50 was 40 nM.

Take `CCC[C@]1(O)CC[C@]2(CCN(c3ccc(CC(F)(F)F)cc3)C2=O)CC1` [Example 81, (5α,8α)-8-Hydroxy-8-propyl-2-[4-(2,2,2-trifluoro-ethyl)-phenyl]-2-aza-spiro[4.5]decan-1-one]: the IC50 is 20 nM.

Take `O=C1N(c2ccc(OCC(F)(F)F)cc2)CC[C@]12CC[C@@](O)(COCC(F)F)CC2` [Example 244, (5α,8α)-8-(2,2-Difluoro-ethoxymethyl)-8-hydroxy-2-[4-(2,2,2-trifluoro-ethoxy)-phenyl]-2-aza-spiro[4.5]decan-1-one]: the IC50 stood at 30 nM.

In the case of `CC[C@]1(O)CC[C@]2(CCN(c3ccc4c(c3)OC(F)(F)O4)C2=O)CC1` [Example 337, (5α,8α)-2-(2,2-Difluoro-benzo[1,3]dioxol-5-yl)-8-ethyl-8-hydroxy-2-aza-spiro[4.5]decan-1-one], the IC50 stood at 80 nM.

As to `CCCC[C@]1(O)CC[C@]2(CCN(c3ccc([C@@H](O)C(F)(F)F)cc3)C2=O)CC1` [Example 190, (5α,8α)-8-butyl-8-hydroxy-2-(4-((R)-2,2,2-trifluoro-1-hydroxyethyl)phenyl)-2-aza-spiro[4.5]decan-1-one], the IC50 came to 10 nM.

As for `COc1cccc(CNC(=O)O[C@H]2CC[C@@]3(CCN(c4ccc(OC(F)(F)F)cc4)C3=O)CC2)c1` [Example 12, (3-Methoxy-benzyl)-carbamic acid [(5α,8β)-1-oxo-2-(4-trifluoromethoxy-phenyl)-2-aza-spiro[4.5]dec-8-yl]ester], the IC50 worked out at 60 nM.

Regarding `COc1ccc(N2CC[C@]3(CC[C@@H](OCc4ccccc4)CC3)C2=O)cc1` [Example 3, (5α,8β)-8-Benzyloxy-2-(4-methoxy-phenyl)-2-aza-spiro[4.5]decan-1-one], the IC50 was determined as 610 nM.

`CC(C)[C@]1(O)CC[C@]2(CCN(c3ccc(C(F)(F)F)cc3)C2=O)CC1` [Example 209, (5α,8α)-8-hydroxy-8-isopropyl-2-(4-(trifluoromethyl)phenyl)-2-aza-spiro[4.5]decan-1-one]: the IC50 was determined as 30 nM.

Regarding `O=C1N(c2ccc(OCC(F)(F)F)cc2)CC[C@]12CC[C@@](O)(COCC1CCCC1)CC2` [Example 273, (5α,8α)-8-[(Cyclopentylmethoxy)methyl]-8-hydroxy-2-[4-(2,2,2-trifluoro-ethoxy)-phenyl]-2-aza-spiro[4.5]decan-1-one], the IC50 amounted to 20 nM.

On to `CC(C)(C)COC[C@]1(O)CC[C@]2(CCN(c3ccc(OCC(F)(F)F)cc3)C2=O)CC1` [Example 274, (5α,8α)-8-(2,2-Dimethyl-propoxymethyl)-8-hydroxy-2-[4-(2,2,2-trifluoro-ethoxy)-phenyl]-2-aza-spiro[4.5]decan-1-one], for which the IC50 was 20 nM.

As for `CC(C)(C)c1ccc(N2CCC3(CCC(C(O)C(F)(F)F)CC3)C2=O)cc1` (single isomer, unassigned) [Example 361, (5α,8α)-2-(4-tert-Butyl-phenyl)-8-(2,2,2-trifluoro-1-hydroxy-ethyl)-2-aza-spiro[4.5]decan-1-one], the IC50 is 110 nM.

In the case of `CC(C)c1ccc(N2CC[C@]3(CC[C@@](O)(C(C)C)CC3)C2=O)cn1` [Example 102, (5α,8α)-8-Hydroxy-8-isopropyl-2-(6-isopropylpyridin-3-yl)-2-aza-spiro[4.5]decan-1-one], the IC50 amounted to 100 nM.

Source of the values: US8440710B2, “HSL inhibitors useful in the treatment of diabetes” (Hoffmann-La Roche Inc., priority 2009, dated 2013).
